In the OligoGym collection:
Values joined by “and” are separate entries in the source; they are usually repeats but may differ in a detail not shown here. Identical values can stand only once. After the bases stand the sugars from the 5' end (letter, count) and the backbone: PS all phosphorothioate, else s phosphorothioate and o phosphodiester by linkage. Methylation of C is not given here. e = 2'-O-(2-methoxyethyl) (MOE); d = 2'-deoxy (DNA)

Target: DGAT2
Details: ASO

| Sequence | target mRNA inhibition (HepG2, 2.5 µM) | target mRNA inhibition (HepG2, 10 µM) | target mRNA inhibition (HepG2, 0.12 µM) |
| --- | --- | --- | --- |
| GGCCCAGATTTAGCCACCAC (sugars e5 d10 e5, PS) | 51% | 79% | – |
| GGCCCCAGGAGCCCTCCTCG (sugars e5 d10 e5, PS) | – | – | 40% |
| GGCTCAGTTCACCTCCAGGA (sugars e5 d10 e5, PS) | 56% | 90% | – |
| GGCTTGGAGTAGGGCACCAG (sugars e5 d10 e5, PS) | – | – | 56% |
| GGGAAGGATACCGCCAATGA (sugars e5 d10 e5, PS) | – | – | 57% |
| GGGAAGGTAAACTGAGGCCA (sugars e5 d10 e5, PS) | – | – | 32% |
| GGGATGATAAACACTAAGGT (sugars e5 d10 e5, PS) | – | – | 37% |
| GGGTCCTCTCCGCTGCC (sugars e3 d10 e4, PS) | 47% | 69% | – |
| GGTAAGGCCAAGGAAGTGAG (sugars e5 d10 e5, PS) | 66% | 80% | – |
| GGTCAGCAGGTTGTGTGTCT (sugars e5 d10 e5, PS) | – | – | 45% and 62% |
| GGTCAGCCTCGGCCTGACGC (sugars e5 d10 e5, PS) | – | – | 11% |
| GGTTGTGTGTCTTCACCAGC (sugars e5 d10 e5, PS) | 0% | – | 64% and 70% |
| GTAGCTGCTTTTCCACCTTG (sugars e5 d10 e5, PS) | – | – | 43% |
| GTAGGGCACCAGCCCCCAGG (sugars e5 d10 e5, PS) | – | – | 23% |
| GTCAAACCTAGGTTCAGACT (sugars e5 d10 e5, PS) | 68% | 87% | – |
| GTCATCCAGTATAGCCTAAT (sugars e5 d10 e5, PS) | – | – | 44% |
| GTCCTGGAGGGCGGAGAGGA (sugars e5 d10 e5, PS) | – | – | 32% |
| GTCTCATTCATCTGGGCCCT (sugars e5 d10 e5, PS) | 69% | 86% | – |
| GTGCTCTGTGGGCTCCT (sugars e3 d10 e4, PS) | 55% and 70% | 85% and 89% | – |
| GTGGTGATGGGCTTGGAGTA (sugars e5 d10 e5, PS) | – | – | 23% |
| GTGTACTTTGAGCATCCCCA (sugars e5 d10 e5, PS) | 63% and 62% | 88% and 87% | – |
| GTTCCAGTCAAACACCAGCC (sugars e5 d10 e5, PS) | – | – | 31% |
| GTTGGGCAGTCACCATTTGC (sugars e5 d10 e5, PS) | 21% | 58% | – |
| GTTGTGTGTCTTCACCAGCT (sugars e3 d14 e3, PS) | – | – | 56% |
| GTTTCGGACCCACTGTGACC (sugars e2 d13 e5, PS) | – | – | 70% |
| GTTTCGGACCCACTGTGACC (sugars e3 d14 e3, PS) | – | – | 71% |

| Sequence | target mRNA inhibition (HepG2, 2.5 µM) | target mRNA inhibition (HepG2, 10 µM) | target mRNA inhibition (HepG2, 0.12 µM) |
| --- | --- | --- | --- |
| TAAAGAGGCTGGGCCATAGA (sugars e5 d10 e5, PS) | – | – | 21% |
| TACAAAAGTCTGACATGGTG (sugars e5 d10 e5, PS) | – | – | 40% |
| TAGAAATACAATTCCTGGAT (sugars e5 d10 e5, PS) | – | – | 71% |
| TAGCATTGCCACTCCCATTC (sugars e3 d14 e3, PS) | – | – | 68% |
| TAGCCAGGTAAGGCCGTATG (sugars e5 d10 e5, PS) | – | – | 56% and 60% |
| TAGCCTGGCTTTGATAACCC (sugars e5 d10 e5, PS) | – | – | 42% |
| TAGCTCATGGTGGCGGCATC (sugars e5 d10 e5, PS) | – | – | 35% |
| TAGGGCACCAGCCCCCAGGT (sugars e5 d10 e5, PS) | – | – | 32% |
| TATTCATCTTTCCAGATCCG (sugars e5 d10 e5, PS) | 66% | 91% | – |
| TATTCTAAAACTCAAATCCA (sugars e5 d10 e5, PS) | 21% | 75% | – |
| TCACTGATGACATATCCCCA (sugars e5 d10 e5, PS) | – | – | 52% |
| TCAGGACCTCAGGGCTGGCC (sugars e5 d10 e5, PS) | 64% | 82% | – |
| TCAGTTCACCTCCAGGACCT (sugars e5 d10 e5, PS) | – | – | 46% |
| TCATTCTCTCCAAAGGAGTA (sugars e5 d10 e5, PS) | – | – | 18% |
| TCATTTCATAGATGAGGAGA (sugars e5 d10 e5, PS) | – | – | 34% |
| TCCATGTCAGAGAGGCT (sugars e3 d10 e4, PS) | 78% and 76% | 65% and 89% | – |
| TCCGCAGGGTGACTGCATTC (sugars e5 d10 e5, PS) | – | – | 48% |
| TCCGGTCAGCCTCGGCCTGA (sugars e5 d10 e5, PS) | – | – | 20% |
| TCCTCTCCTGTTTGATGGGT (sugars e5 d10 e5, PS) | 83% and 90% | 89% and 84% | – |
| TCCTTTGAAATCCAATGCAC (sugars e5 d10 e5, PS) | 75% and 63% | 87% and 77% | – |
| TCTCACATGCCTGAGGGCAG (sugars e5 d10 e5, PS) | 70% | 82% | – |
| TCTGCGCGATTCACTGAGGA (sugars e5 d10 e5, PS) | 64% | 84% | – |
| TGACCTTGGGATAGTCCCTC (sugars e5 d10 e5, PS) | 93% | 89% | – |
| TGAGCTCTCAAGTCTTCCTC (sugars e5 d10 e5, PS) | 55% | 89% | – |
| TGCACCATAATCTGCACAGG (sugars e5 d10 e5, PS) | 75% and 71% | 80% and 91% | – |
